In brackets after ≈: the same amount, converted by molar mass. Several values for one entry are separate records, joined by “and”; a condition that tells them apart may be missing. Equal entries are not always repeated.
Assays:
Test in all cases: ≥ marks a high value that may be exact or a test limit, other limits are often not marked, values filed in µg/mL are converted to µM
[1] = test system: Acinetobacter baumannii ATCC 19606
[2] = test system: Enterococcus faecalis ATCC 29212
[3] = test system: Enterococcus faecium ATCC 700221
[4] = test system: Escherichia coli ATCC 25922
[5] = test system: Klebsiella pneumoniae ATCC 700603
[6] = test system: Pseudomonas aeruginosa ATCC 27853
[7] = test system: Staphylococcus aureus ATCC 25923
[8] = test system: Staphylococcus epidermidis ATCC 35984
[9] = test system: Bacillus subtilis CMCC 63501
Escherichia coli UB1005 = test system: Escherichia coli UB1005
[10] = test system: Pseudomonas aeruginosa PAO1
[11] = test system: Salmonella enterica subsp. enterica serovar Pullorum C79-13
[12] = test system: Salmonella enterica subsp. enterica serovar Typhimurium ATCC 14028
[13] = test system: Salmonella enterica subsp. enterica serovar Typhimurium C77-31
[14] = test system: Salmonella typhimurium ATCC 7731
[15] = test system: Staphylococcus aureus ATCC 29213
[16] = test system: Staphylococcus epidermidis ATCC 12228
Candida albicans C627 = test system: Candida albicans C627
[17] = test system: Enterococcus faecium mic80
[18] = test system: Escherichia coli ESBL 63103
[19] = test system: Pseudomonas aeruginosa 213
[20] = test system: Pseudomonas aeruginosa H103
[21] = test system: Pseudomonas aeruginosa LES400
[22] = test system: Staphylococcus aureus C623
[23] = test system: Escherichia coli NBRC 14237
[24] = test system: Micrococcus luteus NBRC 12708
[25] = test system: Saccharomyces cerevisiae NBRC 10217
[26] = test system: Staphylococcus aureus NBRC 12732
Candida albicans SC5314 = test system: Candida albicans SC5314
[27] = test system: Candida glabrata ATCC 15126
Candida krusei ATCC 6258 = test system: Candida krusei ATCC 6258
[28] = test system: Candida parapsilosis ATCC 22019
[29] = test system: Candida tropicalis ATCC 13803
[30] = test system: Candida albicans ATCC 10231
Candida albicans = test system: Candida albicans
[31] = test system: Escherichia coli BL21 (DE3)-NDM-1
[32] = test system: Escherichia coli BL21(DE3)
Escherichia coli = test system: Escherichia coli
Klebsiella pneumoniae = test system: Klebsiella pneumoniae
Pseudomonas aeruginosa = test system: Pseudomonas aeruginosa
Staphylococcus aureus = test system: Staphylococcus aureus
[33] = test system: Staphylococcus epidermidis

Question: What does the source list for CC(C)C[C@H](NC(=O)[C@H](Cc1cnc[nH]1)NC(=O)[C@H](Cc1ccc(O)cc1)NC(=O)[C@H](CCCN=C(N)N)NC(=O)[C@H](Cc1ccc(O)cc1)NC(=O)[C@H](CCCCN)NC(=O)[C@@H](N)CCCCN)C(=O)N[C@@H](CCCCN)C(=O)N1CCC[C@H]1C(=O)N[C@@H](Cc1ccccc1)C(=O)N[C@@H](CS)C(=O)N[C@@H](CCCCN)C(=O)N[C@@H](CCCCN)C(=O)O [KKYRYHLKPFCKK]?
Answer: MIC [1]: > 294 µM; MIC [2]: 294 µM (≈ 512 µg/mL); MIC [3]: ≥ 147 µM; MIC [4]: 147 µM (≈ 256 µg/mL); MIC [5]: > 294 µM; MIC [6]: > 294 µM; MIC [7]: 294 µM (≈ 512 µg/mL); MIC [8]: ≥ 73.6 µM

Question: CC[C@H](C)[C@H](NC(=O)[C@H](CCCCN)NC(=O)[C@H](CCCCN)NC(=O)[C@H](Cc1ccccc1)NC(=O)[C@H](CC(C)C)NC(=O)[C@H](CCCCN)NC(=O)[C@H](Cc1c[nH]c2ccccc12)NC(=O)[C@@H](N)CCCCN)C(=O)O [KWKLFKKI] was tested. Which MIC [9] did it give?
Answer: ≥ 64 µM

Question: What about the MIC [2] of the same compound?
Answer: > 64 µM and 128 µM

Question: What about the MIC [4] of the same compound?
Answer: 64 µM and 128 µM

Question: What about the MIC (Escherichia coli UB1005) of the same compound?
Answer: ≥ 128 µM

Question: What about the MIC [6] of the same compound?
Answer: > 64 µM and 128 µM

Question: And the MIC [10]?
Answer: > 64 µM

Question: And the MIC [11]?
Answer: ≥ 128 µM

Question: What about the MIC [12] of the same compound?
Answer: > 64 µM and 128 µM

Question: What about the MIC [13] of the same compound?
Answer: ≥ 128 µM

Question: And the MIC [14]?
Answer: ≥ 64 µM

Question: And the MIC [15]?
Answer: > 64 µM and 128 µM

Question: And the MIC [16]?
Answer: > 64 µM and 128 µM

Question: How did the MIC (Candida albicans C627) turn out when CC[C@H](C)[C@H](N)C(=O)N[C@@H](Cc1c[nH]c2ccccc12)C(=O)N[C@@H](CCCCN)C(=O)N[C@@H](CCCN=C(N)N)C(=O)N[C@@H](Cc1c[nH]c2ccccc12)C(=O)N[C@@H](Cc1c[nH]c2ccccc12)C(=O)N[C@@H](Cc1c[nH]c2ccccc12)C(=O)N[C@@H](CCCCN)C(=O)N[C@@H](CCCN=C(N)N)C(=O)O [IWKRWWWKR] was run?
Answer: 22.1 µM (≈ 32 µg/mL)

Question: And the MIC [17]?
Answer: ≥ 88.6 µM

Question: What about the MIC [18] of the same compound?
Answer: ≥ 44.3 µM

Question: What about the MIC [19] of the same compound?
Answer: ≥ 88.6 µM

Question: And the MIC [20]?
Answer: ≥ 88.6 µM

Question: And the MIC [21]?
Answer: ≥ 88.6 µM

Question: And the MIC [7]?
Answer: 88.6 µM (≈ 128 µg/mL)

Question: And the MIC [22]?
Answer: ≥ 44.3 µM

Question: Which MIC [23] does the source give for CC[C@H](C)[C@H](NC(=O)[C@H](CC(C)C)NC(=O)[C@@H]1CCCN1C(=O)[C@H](CC(C)C)NC(=O)[C@H](CCCCN)NC(=O)[C@H](CCCCN)NC(=O)[C@H](CC(C)C)NC(=O)[C@H](CC(C)C)NC(=O)[C@H](C)NC(=O)[C@@H](NC(=O)[C@H](Cc1ccccc1)NC(=O)CN)C(C)C)C(=O)N[C@@H](CC(C)C)C(=O)N[C@@H](CCCCN)C(=O)N[C@@H](Cc1cnc[nH]1)C(=O)N[C@@H](CC(C)C)C(=O)N1CCC[C@H]1C(N)=O [GFVALLKKLPLILKHLP] here?
Answer: 3.12 µM (≈ 5.93 µg/mL)

Question: And the MIC [24]?
Answer: 6.25 µM (≈ 11.9 µg/mL)

Question: What about the MIC [25] of the same compound?
Answer: 25 µM (≈ 47.5 µg/mL)

Question: What about the MIC [26] of the same compound?
Answer: 3.12 µM (≈ 5.93 µg/mL)

Question: Which results are given for CC(C)C[C@H](NC(=O)[C@H](CC(C)C)NC(=O)[C@H](Cc1ccc(O)cc1)NC(=O)[C@H](CCCCN)NC(=O)[C@@H](N)CS)C(=O)N[C@@H](CCCN=C(N)N)C(=O)N[C@@H](Cc1c[nH]c2ccccc12)C(=O)N[C@@H](CCCN=C(N)N)C(=O)O [CKYLLRWR]?
Answer: MIC (Candida albicans SC5314): ≥ 87.9 µM; MIC [27]: 22 µM (≈ 25 µg/mL); MIC (Candida krusei ATCC 6258): ≥ 44 µM; MIC [28]: ≥ 87.9 µM; MIC [29]: ≥ 44 µM

Question: Which MIC [30] does the source give for CC(C)C[C@H](NC(=O)[C@H](CCCCN)NC(=O)[C@H](CCCN=C(N)N)NC(=O)[C@H](Cc1ccccc1)NC(=O)[C@H](Cc1ccccc1)NC(=O)[C@H](CCCCN)NC(=O)[C@H](CCCN=C(N)N)NC(=O)[C@H](CC(C)C)NC(=O)[C@H](CC(C)C)NC(=O)[C@@H](N)CCCN=C(N)N)C(=O)N[C@@H](CCCCN)C(=O)N[C@@H](CCCCN)C(=O)N[C@@H](CO)C(=O)N[C@H](C(=O)O)C(C)C [RLLRKFFRKLKKSV] here?
Answer: 35.2 µM (≈ 64 µg/mL)

Question: And the MIC (Candida albicans)?
Answer: 35.2 µM (≈ 64 µg/mL)

Question: And the MIC [4]?
Answer: 17.6 µM (≈ 32 µg/mL)

Question: And the MIC [31]?
Answer: 4.4 µM (≈ 8 µg/mL)

Question: What about the MIC [32] of the same compound?
Answer: 8.79 µM (≈ 16 µg/mL)

Question: What about the MIC (Escherichia coli) of the same compound?
Answer: 17.6 µM (≈ 32 µg/mL)

Question: What about the MIC (Klebsiella pneumoniae) of the same compound?
Answer: 17.6 µM (≈ 32 µg/mL)

Question: What about the MIC [6] of the same compound?
Answer: 8.79 µM (≈ 16 µg/mL)

Question: And the MIC (Pseudomonas aeruginosa)?
Answer: 17.6 µM (≈ 32 µg/mL)

Question: And the MIC [7]?
Answer: 35.2 µM (≈ 64 µg/mL)

Question: What about the MIC (Staphylococcus aureus) of the same compound?
Answer: 17.6 µM (≈ 32 µg/mL)

Question: What about the MIC [33] of the same compound?
Answer: 17.6 µM (≈ 32 µg/mL)

— DBAASP
